A word on the IC50: it is the concentration that gives 50% inhibition.

Results on 25 compounds are retold here after ChEMBL document CHEMBL3351759, “Synthesis and antitumor activity of novel 3-oxo-23-hydroxybetulinic acid derivatives” (Eur J Med Chem, 2014).

What all share (type): functional, cell-based
Experiment [1] can be described thus: Antiproliferative activity against human HL60 cells after 72 hrs MTT assay. The following applies: HL-60, 72 h. Background: Tetrazolium assays rely on reduction of a dye to a coloured formazan, in cell work by metabolically active cells.
A short description of experiment [2]: Antiproliferative activity against human SF763 cells after 72 hrs MTT assay. Particulars: SF763, 72 h.
Experiment [3] can be described thus: Antiproliferative activity against human Bel7402 cells after 72 hrs MTT assay. The following applies: Bel-7402, 72 h.
Experiment [4] deals with HeLa. As to the kind of experiment: Antiproliferative activity against human HeLa cells after 72 hrs MTT assay.
Experiment [5] concerns B16. As to the kind of experiment: Antiproliferative activity against mouse B16 cells after 72 hrs MTT assay. The following applies: B16, 72 h.

SMILES strings stand for the structures.

`C=C(C)[C@@H]1CC[C@]2(C(=O)O[C@@H]3O[C@H](CO)[C@@H](O)[C@H](O)[C@H]3O)CC[C@]3(C)[C@H](CC[C@@H]4[C@@]5(C)CCC(=O)[C@@](C)(CO)[C@@H]5CC[C@]43C)[C@@H]12`: the half-maximal inhibitory concentration (IC50) is 26.6 µM in experiment [1]; 21.4 µM in experiment [2]; 22.1 µM in experiment [3]; 31 µM in experiment [4]; 14.7 µM in experiment [5].
In the case of `C=C(C)[C@@H]1CC[C@]2(C(=O)O)CC[C@]3(C)[C@H](CC[C@@H]4[C@@]5(C)CC/C(=N\O)[C@@](C)(CO)[C@@H]5CC[C@]43C)[C@@H]12`, the 50% inhibitory concentration (IC50) in experiment [1] worked out at 36.9 µM; in experiment [2], 31.8 µM; in experiment [3], 32.1 µM; in experiment [4], 40.8 µM; in experiment [5] it was 23.8 µM.
Regarding `C=C(C)[C@@H]1CC[C@]2(C(=O)OCc3ccccc3)CC[C@]3(C)[C@H](CC[C@@H]4[C@@]5(C)C[C@H](CO)[C@H](O)[C@@](C)(CO)[C@@H]5CC[C@]43C)[C@@H]12`, the IC50 is 47.9 µM in experiment [1]; 39.1 µM in experiment [2]; 41.7 µM in experiment [3]; 51.4 µM in experiment [4]; 30.5 µM in experiment [5].
Taken in the same sequence, the figures for `C=C(C)[C@@H]1CC[C@]2(C(=O)OCC(=O)OCC)CC[C@]3(C)[C@H](CC[C@@H]4[C@@]5(C)CC/C(=N\O)[C@@](C)(CO)[C@@H]5CC[C@]43C)[C@@H]12` were 33.7 µM, 26.1 µM, 30.6 µM, 30 µM and 17.8 µM.
The matching figures for `C=C(C)[C@@H]1CC[C@]2(C(=O)OCC)CC[C@]3(C)[C@H](CC[C@@H]4[C@@]5(C)CC/C(=N\O)[C@@](C)(CO)[C@@H]5CC[C@]43C)[C@@H]12`: 31.6 µM, 28.6 µM, 30.8 µM, 31.7 µM and 17.6 µM.
Taken in the same sequence, the figures for `C=C(C)[C@@H]1CC[C@]2(C(=O)OCC(=O)O)CC[C@]3(C)[C@H](CC[C@@H]4[C@@]5(C)CC/C(=N\O)[C@@](C)(CO)[C@@H]5CC[C@]43C)[C@@H]12` were 30.5 µM, 17.5 µM, 27.2 µM, 23.8 µM and 17.4 µM.
For `C=C(C)[C@@H]1CC[C@]2(C(=O)Oc3ccc(C#N)cc3)CC[C@]3(C)[C@H](CC[C@@H]4[C@@]5(C)CCC(=O)[C@@](C)(COC(C)=O)[C@@H]5CC[C@]43C)[C@@H]12`, the IC50 stood at 11.6 µM in experiment [1]; 9.11 µM in experiment [2]; 9.23 µM in experiment [3]; 11.7 µM in experiment [4]; 9.02 µM in experiment [5].
As to `C=CCOC(=O)[C@]12CC[C@@H](C(=C)C)[C@@H]1[C@H]1CC[C@@H]3[C@@]4(C)CC/C(=N\O)[C@@](C)(CO)[C@@H]4CC[C@@]3(C)[C@]1(C)CC2`, the IC50 in experiment [1] worked out at 24.1 µM; in experiment [2] it was 15.5 µM; in experiment [3], 22.6 µM; in experiment [4], 25 µM; in experiment [5], 13.1 µM.
Consider `C=C(C)[C@@H]1CC[C@]2(C(=O)OCc3ccccc3)CC[C@]3(C)[C@H](CC[C@@H]4[C@@]5(C)C[C@H](O)[C@H](O)[C@@](C)(CO)[C@@H]5CC[C@]43C)[C@@H]12`, for which the 50% inhibitory concentration (IC50) in experiment [1] was determined as 49.9 µM; in experiment [2], 33.5 µM; in experiment [3], 39.6 µM; in experiment [4] it was 50.4 µM; in experiment [5] it was 26.4 µM.
Consider `C=C(C)[C@@H]1CC[C@]2(C(=O)O)CC[C@]3(C)[C@H](CC[C@@H]4[C@@]5(C)CCC(=O)[C@@](C)(COC(C)=O)[C@@H]5CC[C@]43C)[C@@H]12`, for which the IC50 turned out to be 30.2 µM in experiment [1]; 28.9 µM in experiment [2]; 29.4 µM in experiment [3]; 32.1 µM in experiment [4]; 17.1 µM in experiment [5].
Taken in the same sequence, the figures for `C=C(C)[C@@H]1CC[C@]2(C(=O)OCc3ccccc3)CC[C@]3(C)[C@H](CC[C@@H]4[C@@]5(C)CC/C(=N\NS(=O)(=O)c6ccc(C)cc6)[C@@](C)(CO)[C@@H]5CC[C@]43C)[C@@H]12` were 29.1 µM, 18.4 µM, 26.4 µM, 21.9 µM and 16.2 µM.
The matching figures for `C=C(C)[C@@H]1CC[C@]2(C(=O)O)CC[C@]3(C)[C@H](CC[C@@H]4[C@@]5(C)C[C@H](COC(C)=O)[C@H](OC(C)=O)[C@@](C)(COC(C)=O)[C@@H]5CC[C@]43C)[C@@H]12`: 59.9 µM, 46.1 µM, 50.2 µM, 61.5 µM and 39 µM.
Turning to `C=C(C)[C@@H]1CC[C@]2(C(=O)O)CC[C@]3(C)[C@H](CC[C@@H]4[C@@]5(C)CC/C(=N\NS(=O)(=O)c6ccc(C)cc6)[C@@](C)(CO)[C@@H]5CC[C@]43C)[C@@H]12`, the IC50 in experiment [1] amounted to 46.3 µM; in experiment [2], 25.2 µM; in experiment [3], 39.4 µM; in experiment [4], 44.3 µM; in experiment [5], 33.3 µM.
`C=C(C)[C@@H]1CC[C@]2(C(=O)O)CC[C@]3(C)[C@H](CC[C@@H]4[C@@]5(C)C=C(O)C(=O)[C@@](C)(CO)[C@@H]5CC[C@]43C)[C@@H]12`: the concentration for half-maximal inhibition (IC50) is 22 µM in experiment [1]; 14.3 µM in experiment [2]; 19.6 µM in experiment [3]; 20 µM in experiment [4]; 11.3 µM in experiment [5].
Take `C=C(C)[C@@H]1CC[C@]2(C(=O)OCC)CC[C@]3(C)[C@H](CC[C@@H]4[C@@]5(C)CCC(=O)[C@@](C)(CO)[C@@H]5CC[C@]43C)[C@@H]12`: the IC50 came out at 31.9 µM in experiment [1]; 28.9 µM in experiment [2]; 30.9 µM in experiment [3]; 37.1 µM in experiment [4]; 19.4 µM in experiment [5].
The matching figures for `C=C(C)[C@@H]1CC[C@]2(C(=O)OCC(=O)OCC)CC[C@]3(C)[C@H](CC[C@@H]4[C@@]5(C)CCC(=O)[C@@](C)(CO)[C@@H]5CC[C@]43C)[C@@H]12`: 37.1 µM, 24.7 µM, 30.7 µM, 40.8 µM and 25.7 µM.
With `C=C(C)[C@@H]1CC[C@]2(C(=O)OCc3ccccc3)CC[C@]3(C)[C@H](CC[C@@H]4[C@@]5(C)C[C@H](OC(C)=O)[C@H](OC(C)=O)[C@@](C)(COC(C)=O)[C@@H]5CC[C@]43C)[C@@H]12`, the IC50 in experiment [1] turned out to be 46.1 µM; in experiment [2], 32.1 µM; in experiment [3], 34.5 µM; in experiment [4] it was 46 µM; in experiment [5], 21.6 µM.
On to `C=C(C)[C@@H]1CC[C@]2(C(=O)OCc3ccc(-c4ccccc4C#N)cc3)CC[C@]3(C)[C@H](CC[C@@H]4[C@@]5(C)CCC(=O)[C@@](C)(CO)[C@@H]5CC[C@]43C)[C@@H]12`, for which the IC50 in experiment [1] amounted to 14.3 µM; in experiment [2] it was 10.1 µM; in experiment [3], 10.3 µM; in experiment [4], 15.2 µM; in experiment [5], 10 µM.
In the case of `C=C(C)[C@@H]1CC[C@]2(C(=O)NCC(=O)OC)CC[C@]3(C)[C@H](CC[C@@H]4[C@@]5(C)CCC(=O)[C@@](C)(COC(C)=O)[C@@H]5CC[C@]43C)[C@@H]12`, the IC50 was found to be 19.2 µM in experiment [1]; 13.6 µM in experiment [2]; 15.6 µM in experiment [3]; 17.1 µM in experiment [4]; 10.7 µM in experiment [5].
Turning to `C=C(C)[C@@H]1CC[C@]2(C(=O)O)CC[C@]3(C)[C@H](CC[C@@H]4[C@@]5(C)C=C(OC(C)=O)C(=O)[C@@](C)(COC(C)=O)[C@@H]5CC[C@]43C)[C@@H]12`, the 50% inhibitory concentration (IC50) in experiment [1] worked out at 29.8 µM; in experiment [2], 18.9 µM; in experiment [3], 25.4 µM; in experiment [4], 24.1 µM; in experiment [5], 15 µM.
In the case of `C=C(C)[C@@H]1CC[C@]2(C(=O)N3CCOCC3)CC[C@]3(C)[C@H](CC[C@@H]4[C@@]5(C)CCC(=O)[C@@](C)(COC(C)=O)[C@@H]5CC[C@]43C)[C@@H]12`, the IC50 came to 12.1 µM in experiment [1]; 10.1 µM in experiment [2]; 10.5 µM in experiment [3]; 10.3 µM in experiment [4]; 8.16 µM in experiment [5].
The matching figures for `C=C(C)[C@@H]1CC[C@]2(C(=O)O)CC[C@]3(C)[C@H](CC[C@@H]4[C@@]5(C)C[C@H](OC(C)=O)[C@H](OC(C)=O)[C@@](C)(COC(C)=O)[C@@H]5CC[C@]43C)[C@@H]12`: 58.1 µM, 45.8 µM, 49.6 µM, 59.1 µM and 30.5 µM.
For the compound `COc1cccc2c1C(=O)c1c(O)c3c(c(O)c1C2=O)C[C@@](O)(C(=O)CO)C[C@@H]3O[C@H]1C[C@H](N)[C@H](O)[C@H](C)O1` [DOXORUBICIN], the figures for the IC50 in experiment [3], in experiment [4] and in experiment [5] were 0.22 µM, 0.21 µM and 0.18 µM, respectively.
As to `C=C(C)[C@@H]1CC[C@]2(C(=O)OCc3ccccc3)CC[C@]3(C)[C@H](CC[C@@H]4[C@@]5(C)CCC(=O)[C@@](C)(CO)[C@@H]5CC[C@]43C)[C@@H]12`, the half-inhibitory concentration (IC50) in experiment [1] came out at 23.7 µM; in experiment [2], 19.5 µM; in experiment [3], 20.1 µM; in experiment [4], 26.1 µM; in experiment [5], 14.1 µM.
The matching figures for `C=C(C)[C@@H]1CC[C@]2(C(=O)OCCO)CC[C@]3(C)[C@H](CC[C@@H]4[C@@]5(C)CCC(=O)[C@@](C)(COC(C)=O)[C@@H]5CC[C@]43C)[C@@H]12`: 31.1 µM, 22.1 µM, 27.4 µM, 24.4 µM and 18.1 µM.
